Laboratory results as given in ChEMBL document CHEMBL4346704, “Novel symmetric bis-benzimidazoles: Synthesis, DNA/RNA binding and antitrypanosomal activity” (Eur J Med Chem, 2019).
pIC50: −log10 of the molar value. Active and inactive are the calls of the source. The rule behind the calls is not given here.

How the values were obtained:
Calf thymus DNA [1] = test: Binding affinity to calf thymus DNA assessed as change in melting temperature at compound to calf thymus DNA polynucleotide ratio of 0.3 by spectrophotometric analysis; format: nucleic-acid assay; settings: Bos taurus
[2] = Binding affinity to polyA-polyU dsRNA (unknown origin) assessed as hypochromic effect by UV-vis spectrophotometric method relative to control; format: nucleic-acid assay; set-up: concentration or dose not given beside the values
[3] = Binding affinity to polyA-polyU dsRNA (unknown origin) assessed as change in melting temperature at 0.1 ratio of compound to RNA by spectrophotometric analysis; format: nucleic-acid assay
Calf thymus DNA [4] = test: Binding affinity to calf thymus DNA assessed as change in melting temperature at compound to calf thymus DNA polynucleotide ratio of 0.5 by spectrophotometric analysis; format: nucleic-acid assay; settings: Bos taurus
Calf thymus DNA [5] = test: Binding affinity to calf thymus DNA assessed as hypochromic effect by UV-vis spectrophotometric method relative to control; format: nucleic-acid assay; set-up: concentration or dose not given beside the values; settings: Bos taurus
[6] = test system: Poly(dA-dU)oligonucleotide; test: Binding affinity to polyA-polyU dsRNA (unknown origin) assessed as change in melting temperature at 0.3 ratio of compound to RNA by spectrophotometric analysis; format: nucleic-acid assay
[7] = Ratio of compound concentration to polynucleotide phosphate concentration for binding affinity to polyA-polyU dsRNA (unknown origin); format: nucleic-acid assay
Calf thymus DNA [8] = test: Ratio of compound concentration to polynucleotide phosphate concentration for binding affinity to calf thymus DNA; format: nucleic-acid assay; settings: Bos taurus
Trypanosoma brucei = test: Antitrypanosomal activity against Trypanosoma brucei 221 incubated for 48 hrs by resazurin based fluorescence assay; format: functional, organism-based; settings: Trypanosoma brucei, 221, 48 h
[9] = test system: Poly(dA-dU)oligonucleotide; test: Binding affinity to polyA-polyU dsRNA (unknown origin) assessed as change in melting temperature at 0.5 ratio of compound to RNA by spectrophotometric analysis; format: nucleic-acid assay
Calf thymus DNA [10] = test: Binding affinity to calf thymus DNA by UV-vis spectrophotometric method; format: nucleic-acid assay; settings: Bos taurus
L6 = test: Cytotoxicity against rat L6 cells incubated for 6 days by resazurin based fluorescence assay; format: cell-based; settings: L6, 144 h
Calf thymus DNA [11] = test: Binding affinity to calf thymus DNA assessed as conformational change by circular dichroism analysis; format: nucleic-acid assay; settings: Bos taurus
Calf thymus DNA [12] = test: Binding affinity to calf thymus DNA assessed as change in melting temperature at compound to calf thymus DNA polynucleotide ratio of 0.1 by spectrophotometric analysis; format: nucleic-acid assay; settings: Bos taurus
[13] = test system: Poly(dA-dU)oligonucleotide; test: Binding affinity to polyA-polyU dsRNA (unknown origin) assessed as binding constant by UV-vis spectrophotometric method; format: nucleic-acid assay
[14] = test system: Poly(dA-dU)oligonucleotide; test: Binding affinity to polyA-polyU dsRNA (unknown origin) assessed as conformational change by circular dichroism analysis; format: nucleic-acid assay

| Compound | ΔTm (Calf thymus DNA [1]) [°C] | Activity [2] [%] | ΔTm [3] [°C] | ΔTm (Calf thymus DNA [4]) [°C] | Activity (Calf thymus DNA [5]) [%] | ΔTm [6] [°C] | Ratio [7] | Ratio (Calf thymus DNA [8]) | pIC50 (Trypanosoma brucei) | IC90 (Trypanosoma brucei) [µM] | ΔTm [9] [°C] | log Ks (Calf thymus DNA [10]) | pIC50 (L6) | Activity (Calf thymus DNA [11]) | ΔTm (Calf thymus DNA [12]) [°C] | log Ks [13] | Activity [14] |
| --- | --- | --- | --- | --- | --- | --- | --- | --- | --- | --- | --- | --- | --- | --- | --- | --- | --- |
| Cl.Cl.N=C(N)c1ccc2[nH]c(-c3ccc(Cn4cc(CCCc5cn(Cc6ccc(-c7nc8cc(C(=N)N)ccc8[nH]7)o6)nn5)nn4)o3)nc2c1 | 13 | 46 | 1.5 | 13.8 | 13 | 0.6 | 0.3 | 0.05 | 5.44 | 5.5 | 9.3 | 6.61 | 3.70 | Active | 13.6 | 5.7 | – |
| Cl.Cl.N=C(N)c1ccc2[nH]c(-c3ccc(Cn4cc(COCc5cn(Cc6ccc(-c7nc8cc(C(=N)N)ccc8[nH]7)o6)nn5)nn4)o3)nc2c1 | 10.4 | 24 | 2.2 | 12.5 | 37 | 3.5 | 0.43 | 0.47 | 5.48 | 4.7 | 3.3 | 5.93 | 4.05 | Active | 9.2 | 6.65 | – |
| Clc1ccc2[nH]c(-c3ccc(Cn4cc(COc5ccc(-c6ccc(OCc7cn(Cc8ccc(-c9nc%10cc(Cl)ccc%10[nH]9)o8)nn7)cc6)cc5)nn4)o3)nc2c1 | 0 | 15 | – | – | 16 | 0 | – | 0.3 | 6.43 | 9.7 | – | 4 | 4.52 | inactive | – | – | – |
| Fc1ccc2[nH]c(-c3ccc(Cn4cc(COc5ccc(OCc6cn(Cc7ccc(-c8nc9cc(F)ccc9[nH]8)o7)nn6)cc5)nn4)o3)nc2c1 | 1.2 | 11 | 0 | 3.4 | 25 | 0 | – | 0.17 | 5.47 | 6.7 | 0 | 5.92 | 3.66 | inactive | 0.5 | – | – |
| Fc1ccc2[nH]c(-c3ccc(Cn4cc(COCc5cn(Cc6ccc(-c7nc8cc(F)ccc8[nH]7)o6)nn5)nn4)o3)nc2c1 | 0.5 | 51 | 1 | 0 | 35 | 1 | 0.35 | 0.47 | 5.10 | > 25 | 1 | 5.93 | – | inactive | 0 | 6.43 | – |
| CC(C)NC(=N)c1ccc2[nH]c(-c3ccc(Cn4cc(COc5ccc(-c6ccc(OCc7cn(Cc8ccc(-c9nc%10cc(C(=N)NC(C)C)ccc%10[nH]9)o8)nn7)cc6)cc5)nn4)o3)nc2c1 | 2.1 | < 5 | – | – | 8 | 0 | – | – | < 5.00 | – | – | – | – | Active | – | – | Active |
| CC(C)NC(=N)c1ccc2[nH]c(-c3ccc(Cn4cc(COCc5cn(Cc6ccc(-c7nc8cc(C(=N)NC(C)C)ccc8[nH]7)o6)nn5)nn4)o3)nc2c1 | 9.7 | 13 | 1.3 | 11.1 | 21 | 2 | 0.3 | 0.67 | 5.10 | 10.8 | 1.6 | 5.68 | – | Active | 8.1 | 6.16 | – |
| c1ccc2[nH]c(-c3ccc(Cn4cc(CCCc5cn(Cc6ccc(-c7nc8ccccc8[nH]7)o6)nn5)nn4)o3)nc2c1 | 1.2 | 10 | 0 | 3.2 | 45 | 0 | 0.13 | 0.19 | < 4.82 | – | 0 | 6.55 | – | inactive | 2.6 | 6.54 | – |
| N=C(N)c1ccc2[nH]c(-c3ccc(Cn4cc(COc5ccc(-c6ccc(OCc7cn(Cc8ccc(-c9nc%10cc(C(=N)N)ccc%10[nH]9)o8)nn7)cc6)cc5)nn4)o3)nc2c1 | – | < 5 | – | – | 8 | 0.9 | – | – | < 5.00 | – | – | – | – | Active | – | – | Active |
| c1cc(-c2ccc(OCc3cn(Cc4ccc(-c5nc6cc(C7=NCCN7)ccc6[nH]5)o4)nn3)cc2)ccc1OCc1cn(Cc2ccc(-c3nc4cc(C5=NCCN5)ccc4[nH]3)o2)nn1 | 2.6 | 8 | – | – | 9 | 0 | – | – | < 5.00 | – | – | – | – | Active | – | – | Active |
| CC(C)NC(=N)c1ccc2[nH]c(-c3ccc(Cn4cc(CCCc5cn(Cc6ccc(-c7nc8cc(C(=N)NC(C)C)ccc8[nH]7)o6)nn5)nn4)o3)nc2c1.Cl.Cl | 14.5 | 32 | 0.9 | 14.8 | 24 | 0.5 | 0.58 | 0.09 | 5.29 | 8.2 | 0.8 | 6.33 | 3.98 | Active | 13.8 | 5.69 | – |
| c1ccc2[nH]c(-c3ccc(Cn4cc(COCc5cn(Cc6ccc(-c7nc8ccccc8[nH]7)o6)nn5)nn4)o3)nc2c1 | 0.7 | 41 | 0.6 | 1.1 | 36 | 0 | 0.31 | 0.29 | < 4.82 | – | 0.6 | 6.22 | – | inactive | 0.6 | 5.76 | – |
| Fc1ccc2[nH]c(-c3ccc(Cn4cc(CCCc5cn(Cc6ccc(-c7nc8cc(F)ccc8[nH]7)o6)nn5)nn4)o3)nc2c1 | 1.3 | 31 | 0.8 | 2 | 46 | 1.3 | 0.5 | 0.15 | 5.40 | 8.9 | 2 | 6.56 | 3.66 | inactive | 0.8 | 4.94 | – |
| Clc1ccc2[nH]c(-c3ccc(Cn4cc(COc5ccc(OCc6cn(Cc7ccc(-c8nc9cc(Cl)ccc9[nH]8)o7)nn6)cc5)nn4)o3)nc2c1 | 1.5 | 7 | 0 | 2 | 27 | 0 | – | 0.65 | 5.85 | 2.5 | 0 | 6.33 | < 3.57 | inactive | 0.7 | – | – |
| Clc1ccc2[nH]c(-c3ccc(Cn4cc(COCc5cn(Cc6ccc(-c7nc8cc(Cl)ccc8[nH]7)o6)nn5)nn4)o3)nc2c1 | 1.2 | 52 | 1 | 2.6 | 35 | 0.6 | 0.19 | 0.21 | 5.19 | 11.8 | 0.6 | 5.21 | – | inactive | 0.7 | 5.12 | – |
| c1ccc2[nH]c(-c3ccc(Cn4cc(COc5ccc(-c6ccc(OCc7cn(Cc8ccc(-c9nc%10ccccc%10[nH]9)o8)nn7)cc6)cc5)nn4)o3)nc2c1 | 0 | 12 | – | – | 14 | 0 | – | 0.3 | < 5.00 | – | – | 4 | – | inactive | – | – | – |
| Clc1ccc2[nH]c(-c3ccc(Cn4cc(CCCc5cn(Cc6ccc(-c7nc8cc(Cl)ccc8[nH]7)o6)nn5)nn4)o3)nc2c1 | 4.1 | 34 | 0 | 2.5 | 27 | 0 | 0.5 | 0.05 | 5.52 | 7.2 | 0 | 7.04 | < 3.52 | inactive | 2.1 | < 4 | – |
| c1ccc2[nH]c(-c3ccc(Cn4cc(COc5ccc(OCc6cn(Cc7ccc(-c8nc9ccccc9[nH]8)o7)nn6)cc5)nn4)o3)nc2c1 | 3.2 | 22 | 0 | 2.6 | 35 | 0 | 0.3 | 0.1 | < 4.82 | – | 0 | 6.18 | – | inactive | 2.8 | 5.5 | – |
